Results from patent US9434688B2, “Indole derivatives as selective androgen receptor modulators (SARMS)” (Janssen Pharmaceutica, NV, priority 2004, dated 2016).
Values joined by “and” are separate entries in the source; they are usually repeats but may differ in a detail not shown here. Equal entries are not always repeated.

Legend:
androgen receptor [1] = target: T1, androgen receptor (Rattus norvegicus, UniProt P15207); assay: L929 Androgen Receptor Functional Assay, Adenovirus Transduction; assay type: cell-based; design: expressed in transfected cells; host or cells: L929 cells transduced with adenovirus AdEasy+rAR; details: for % Activity: L929 agonist testing
T1 sequence (P15207 1-902): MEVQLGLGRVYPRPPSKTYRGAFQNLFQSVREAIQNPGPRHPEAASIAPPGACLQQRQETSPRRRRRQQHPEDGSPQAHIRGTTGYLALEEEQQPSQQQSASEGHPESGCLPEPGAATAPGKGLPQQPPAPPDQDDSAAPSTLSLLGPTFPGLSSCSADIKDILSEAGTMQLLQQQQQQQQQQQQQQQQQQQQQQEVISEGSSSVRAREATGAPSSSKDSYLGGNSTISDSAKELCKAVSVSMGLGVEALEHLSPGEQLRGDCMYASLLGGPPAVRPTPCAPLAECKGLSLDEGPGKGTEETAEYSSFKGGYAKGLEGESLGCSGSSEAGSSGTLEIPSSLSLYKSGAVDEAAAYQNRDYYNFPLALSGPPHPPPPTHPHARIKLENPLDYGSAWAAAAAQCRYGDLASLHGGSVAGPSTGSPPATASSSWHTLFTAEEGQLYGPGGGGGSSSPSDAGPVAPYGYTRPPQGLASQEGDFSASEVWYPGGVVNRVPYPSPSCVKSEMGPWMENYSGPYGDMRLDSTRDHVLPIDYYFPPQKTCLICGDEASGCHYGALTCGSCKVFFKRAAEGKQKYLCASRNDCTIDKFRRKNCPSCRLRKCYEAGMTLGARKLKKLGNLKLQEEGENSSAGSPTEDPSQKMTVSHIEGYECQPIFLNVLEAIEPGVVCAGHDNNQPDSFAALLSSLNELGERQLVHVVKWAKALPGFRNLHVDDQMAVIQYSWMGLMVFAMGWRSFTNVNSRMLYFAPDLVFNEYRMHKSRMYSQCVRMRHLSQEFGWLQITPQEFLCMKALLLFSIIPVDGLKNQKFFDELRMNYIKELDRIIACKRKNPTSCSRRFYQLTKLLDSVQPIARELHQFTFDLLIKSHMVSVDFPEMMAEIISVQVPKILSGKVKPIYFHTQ
Method: L929 cells were plated in 96-well plates at 20,000 cells per well, in DMEM/F12 (GIBCO) containing 10% (v/v) charcoal-treated fetal bovine serum (Hyclone) and lacking phenol red. The plates were then incubated overnight at 37° C. in 5% (v/v) humidified CO2.
Test compound dilutions were prepared in 100% (v/v) DMSO, if necessary. Each dilution was made to 1250× the final desired assay concentration.
First, 2 mL of DMEM/F12 lacking phenol red was pipetted into the wells of a 2-mL 96-well assay block. Next, 4 μL of the 1250× test compound dilutions were pipetted into each well of the assay block. The mixtures within the well were then carefully mixed by pipette.
In a 15 mL or 50 mL sterile centrifuge tube, a 2.5 nM (2.5×) dilution of R1881 (methyl-trienolone) in DMEM/F12 lacking phenol red was prepared.
In a second 15 mL or 50 mL centrifuge tube a solution containing an equal volume of DMEM to the first and an equal volume of 100% (v/v) DMSO to the volume of R1881 used in the first tube was prepared.
In a 15 mL or 50 mL sterile centrifuge tube, a dilution in DMEM/F12 of the adenovirus AdEasy+rAR at an moi of 1:500 per well was prepared.
The medium was removed from the 96-well plates by inversion and dried, inverted, very briefly. As soon as possible after medium removal, 40 μL of the diluted unlabeled test compound was added to each well, in duplicate. To each well designated for antagonist testing was added 40 μL of the 2.5 nM R1881 dilution to the wells for antagonist testing. To each well designated for agonist testing was added 40 μL of the DMSO dilution. Then 20 μL of the diluted adenovirus were added to all wells. The plates were incubated for 48 hours at 37° C. in 5% (v/v) humidified CO2.
To each well was added 100 μL of Steady-Glo luciferase assay substrate (Promega) and the plates were placed on a rotary shaker for 1 min. The plates were then incubated at room temperature in the dark for one hour. The contents of each well were then transferred to a white microtiter plate (Packard) and read on a Luminoskan Ascent (Thermo Lab Systems).
L929 AR percent activity was determined by testing dilutions of the test compound using a concentration of 3000 nM unless otherwise noted. L929 percent inhibition was determined by testing dilutions of the test compound using a concentration of 3000 nM. […] Luciferase activity per well were measured and EC50s and IC50s determined by linear regression.

androgen receptor [2] = target: T1, androgen receptor; assay: Androgen Receptor Binding Using Rat Ventral Prostate Cytosol; design: from tissue; host or cells: ventral prostate cytosol of castrated male Sprague Dawley or Wistar rats; details: Rat Cytosol
Method: Rat Prostate Cytosol Preparation:
Male Sprague Dawley or Wistar rats (Charles River, 200-300 g) were used for each preparation. The day before preparing the cytosol, the rats were castrated using standard surgical procedures.
The rats were euthanized by carbon dioxide asphyxiation. The rat prostates were quickly removed and placed on ice in pre-chilled, pre-weighed 50 mL plastic tubes. No more than five prostates were placed into one tube. The tubes were then weighed and the prostate tissue wet weights calculated.
To the chilled prostate tissue was then added […] of chilled homogenization buffer. The homogenization buffer was freshly prepared by mixing 10 mM Tris.HCl, pH 7.4, 1 mM sodium molybdate, 1.5 mM EDTA, 1 mM dithiothreitol, 10% (v/v) glycerol and 1% protease inhibitor cocktail (Sigma P 8340).
The prostate tissue was homogenized in a cold room using a pre-chilled Polytron PT3000 homogenizer (Brinkmann). Homogenization was performed at a speed setting of 20, three times for 10 sec bursts. The tubes containing the prostate tissue was kept on ice while homogenizing. The homogenate was allowed to rest on ice for 20 sec between bursts.
The homogenate was then placed into pre-chilled 3 mL polycarbonate ultracentrifuge tubes and centrifuged in the TLA-100 rotor of a TL-100 ultracentrifuge for 12 min at 100,000 rpm at 4° C. The resulting supernatant was stored in 1 mL aliquots at −80° C. until needed.
Binding to the androgen receptor was determined according to the protocol described in Example 86 using the above prepared rat cytosol.
% Inhibition was determined by testing dilutions of the test compound (usually duplicates of 10 μM) in the binding assay. Counts per well were measured and percents of inhibition determined. […] Counts per well were measured and IC50s determined by linear regression.

Compound | % Activity (androgen receptor [1]; concentration of 3000 nM) | other results
CC[S+]([O-])CC(O)c1cc2cc([N+](=O)[O-])c(C(F)(F)F)cc2[nH]1 (mixture of isomers) [compound 180] | 2% | 
CSCCC(C)(O)c1cc2cc(Cl)c(C(F)(F)F)cc2[nH]1 (racemic) [compound 51] | 2% | 
CN(C)c1ccc(S(=O)(=O)CC(C)(O)c2cc3cc(Cl)c(C(F)(F)F)cc3[nH]2)cc1 (racemic) [compound 126] | −5% | % Inhibition (androgen receptor [2]; Concentration 3000 nM): −30%
CC(O)(CS(=O)(=O)Cc1ccccc1)c1cc2cc([N+](=O)[O-])c(C(F)(F)F)cc2[nH]1 (racemic) [compound 162] | 2% | % Inhibition (androgen receptor [2]; Concentration 3000 nM): 0.69%
CCCSCC(C)(O)c1cc2cc(Cl)c(C(F)(F)F)cc2[nH]1 (racemic) [compound 196] | 13% | 
CC(O)(CSCc1ccco1)c1cc2cc([N+](=O)[O-])c(C(F)(F)F)cc2[nH]1 (racemic) [compound 198] | 7% | 
CC(O)(CS(=O)(=O)CC(F)(F)F)c1cc2cc([N+](=O)[O-])c(C(F)(F)F)cc2[nH]1 (racemic) [compound 208] | 1% | 
CC(O)(CSCC(F)(F)F)c1cc2cc(C#N)c(C(F)(F)F)cc2[nH]1 (racemic) [compound 211] | −1% | 
CCS(=O)(=O)CC(C)(O)c1cc2cc(C#N)c(C(F)(F)F)cc2n1C (racemic) [compound 240] | 0% | 
CC(O)(Sc1ccc(Cl)c(Cl)c1)c1cc2cc([N+](=O)[O-])c(C(F)(F)F)cc2[nH]1 (racemic) [compound 254] |  | % Inhibition (androgen receptor [2]; Concentration 1000 nM): 41%
CC(O)(c1cc2cc([N+](=O)[O-])c(C(F)(F)F)cc2[nH]1)S(=O)(=O)c1ccc(Cl)c(Cl)c1 (racemic) [compound 255] |  | % Inhibition (androgen receptor [2]; Concentration 1000 nM): 26%
CC(O)(Sc1ccccc1)c1cc2cc([N+](=O)[O-])c(C(F)(F)F)cc2[nH]1 (racemic) [compound 258] |  | % Inhibition (androgen receptor [2]; Concentration 1000 nM): 35.4%
CC(O)(Sc1ccc(Cl)cc1)c1cc2cc(C#N)c(C(F)(F)F)cc2[nH]1 (racemic) [compound 261] |  | % Inhibition (androgen receptor [2]; Concentration 1000 nM): 14.05%
CC(O)(c1cc2cc(C#N)c(C(F)(F)F)cc2[nH]1)S(=O)(=O)c1ccc(Cl)cc1 (racemic) [compound 262] |  | % Inhibition (androgen receptor [2]; Concentration 1000 nM): −8.4%
CC(O)(Sc1ccc(N)cc1)c1cc2cc(Cl)c(C(F)(F)F)cc2[nH]1 (racemic) [compound 265] | −1% | % Inhibition (androgen receptor [2]; Concentration 3000 nM): 93.5%
CC(O)(Sc1ccc(N)cc1)c1cc2cc([N+](=O)[O-])c(C(F)(F)F)cc2[nH]1 (racemic) [compound 266] | −4% | % Inhibition (androgen receptor [2]; Concentration 3000 nM): 12.4%
CSC(C)(O)c1cc2cc([N+](=O)[O-])c(C(F)(F)F)cc2[nH]1 (racemic) [compound 267] |  | % Activity (androgen receptor [1]; concentration of 3000 nM, 3 µM): −5% and 0%
CC(C)SC(C)(CO)c1cc2cc([N+](=O)[O-])c(C(F)(F)F)cc2[nH]1 (racemic) [compound 268] | 9% | % Inhibition (androgen receptor [2]; Concentration 3000 nM): −3.3%
CCSCC(C)(O)c1cc2cc(C#N)c(C(F)(F)F)cc2[nH]1 (single isomer, unassigned) [Compound #217, 2-(2-Ethylsulfanyl-1-hydroxy-1-methyl-ethyl)-6-trifluoromethyl-1H-indole-5-carbonitrile] |  | % Activity (androgen receptor [1]; @ 8000 nM): 0 @ 8000 nM %
CS(=O)(=O)n1c(C2(O)CCN(C(=O)c3ccc(Cl)cc3)CC2)cc2cc(Cl)c(C(F)(F)F)cc21 [compound 24] |  | % Inhibition (androgen receptor [2]; Concentration 1000 nM): 2%
CSCCC(C)(O)c1cc2cc([N+](=O)[O-])c(C(F)(F)F)cc2[nH]1 (centres unmarked) [compound 47] | 2% | 
COc1ccc(S(=O)(=O)CC(C)(O)c2cc3cc(Cl)c(C(F)(F)F)cc3n2S(C)(=O)=O)cc1 (centres unmarked) [compound 128] | −4% | 
CC(O)(CSc1ccc(C(=O)O)cc1)c1cc2cc(Cl)c(C(F)(F)F)cc2n1S(C)(=O)=O (centres unmarked) [compound 132] | −5% | 
CC(O)(CSc1ccc(C(=O)O)cc1)c1cc2cc(Cl)c(C(F)(F)F)cc2[nH]1 (centres unmarked) [compound 133] | −4% | 
CC(O)(CS(C)(=O)=O)c1cc2cc(Cl)c(C(F)(F)F)cc2n1S(C)(=O)=O (centres unmarked) [compound 137] | 0% | 
CC(C)CSCC(C)(O)c1cc2cc([N+](=O)[O-])c(C(F)(F)F)cc2[nH]1 (centres unmarked) [compound 170] | 2% | 
CC[S+]([O-])CC(C)(O)c1[nH]c2cc(C(F)(F)F)c(C#N)cc2c1C (centres unmarked) [compound 252] |  | IC50 (androgen receptor [1]; L929 antagonist testing with R1881): 3.1 µM
